The numbers were not newly measured in patent EP0713864A1, “Substituted benzoylguanidines, process for their preparation, their use as medicament of diagnostic agent as well as medicaments containing them” (HOECHST AKTIENGESELLSCHAFT, priority 1994, dated 1996), which cites them from elsewhere.

The subject of this series is Kammerflimmern. The settings on record: isolated rat hearts; Eur. Heart J. 9 (suppl.1): 167 (1988).

Turning to `CCN(c1nc(N)c(C(=O)NC(=N)N)nc1Cl)C(C)C` [Ethylisopropylamilorid], the “Unterdrückung eines künstlich ausgelösten Kammerflimmerns” value is “Noch potenter als Amilorid”.
Consider `N=C(N)NC(=O)c1nc(Cl)c(N)nc1N` [Amilorid], for which the “Unterdrückung eines künstlich ausgelösten Kammerflimmerns” value is recorded as “völlig unterdrückt”.
